Assay results taken from patent US20050159599A1, “Cyclic compound, process for producing the same, and pest control agent” (priority 2002, published 2005).

Experiments:
Assay type in all cases: in vivo
Plutella xylostella [1] = assay: Insecticidal effect for Plutella xylostella by immersion treatment of host crop (Test Example 1); conditions: cabbage leaf dipped, second-instar larvae of Plutella xylostella, fifth day after; for rate of dead pests (%): 100 ppm; for pest or weed control at 100 ppm: foliar, 120 h, read-out: rate of dead pests (%)
Description: Insecticidal Effect for Plutella xylostella by Immersion Treatment of Host Crop One true leaf of 7 to 8-leave stage cabbage was cut off and dipped in a pesticidal solution for a few seconds, which was prepared by dissolving 5 mg of test compound (represented by the compound Nos. in the above Examples) in 0.5 ml of acetone containing Tween 20 (trade name) and then diluting it to the prescribed concentration (100 ppm) with Dain (trade name, sticker) water diluted 5000-fold. After drying the pesticidal solution, the leaf was put into an ice cream cup (180 ml), and ten second-instar larvae of Plutella xylostella were set free therein. The cup was left in a temperature-controlled breeding room (24° C.). On the fifth day after, the number of surviving Plutella xylostella was examined. The rate of dead pests was calculated by the following formula. rate of dead pests (%)=(number of dead pests/number of test pests)×100

Spodoptera litura [2] = assay: Insecticidal effect for Spodoptera litura by spraying treatment to host crop (Test Example 2); conditions: 100 ppm, sprayed on soybean, third-instar larvae of Spodoptera litura, fifth day after; for pest or weed control at 100 ppm: 120 h, read-out: rate of dead pests (%)
Procedure, shortened: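 Soybean plants with fully developed primary leaves sprayed to runoff with 100 ppm compound (acetone/Tween 20, sticker water). Dried leaves given to ten third-instar larvae at 25° C.; survivors counted on day 5, mortality as dead/tested × 100.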

Plutella xylostella [3] = assay: Insecticidal effect for Plutella xylostella by immersion treatment of host crop root (Test Example 3); conditions: 25 ppm, cabbage root immersed 5 days, ten second-instar larvae on stem and leaves, counted on the fifth day, 24° C.; for pest or weed control at 25 ppm: Plutella xylostella, 120 h, read-out: rate of dead pests (%)
Description: Insecticidal Effect for Plutella xylostella by Immersion Treatment of Host Crop Root
Roots of 4-leave stage cabbage was washed with tap water to remove soil, and then immersed in a pesticidal solution which was prepared by dissolving 5 mg of test compound (represented by the compound Nos. in the above Examples) in 0.5 ml of acetone containing Tween 20 (trade name) and then diluting it to the prescribed concentration (25 ppm) with ion-exchange water, and which was filled in a light-shielded Erlenmeyer flask (100 ml). On the fifth day after immersion of root, the root was cut off, and the stem and leaves were put into an ice cream cup (180 ml). Ten second-instar larvae of Plutella xylostella were set free therein, and the cup was left in a temperature-controlled breeding room (24° C.). On the fifth day after, the number of surviving Plutella xylostella was examined. The rate of dead pests was calculated by the following formula. rate of dead pests (%)=(number of dead pests/number of test pests)×100

Spodoptera litura [4] = assay: Insecticidal effect for Spodoptera litura by immersion treatment of host crop root (Test Example 4); conditions: 25 ppm, soybean root immersion 5 days, second-instar larvae of Spodoptera litura, fifth day after; for pest or weed control at 25 ppm: 120 h, read-out: rate of dead pests (%)
Description: Insecticidal Effect for Spodoptera litura by Immersion Treatment of Host Crop Root Roots of primary leaves developing stage soybean was washed with tap water to remove soil, and then immersed in a pesticidal solution which was prepared by dissolving 5 mg of test compound (represented by the compound Nos. in the above Examples) in 0.5 ml of acetone containing Tween 20 ([…]) with ion-exchange water, and which was filled in a light-shielded Erlenmeyer flask (100 ml). On the fifth day after immersion of root, two primary leaves were cut off, and the leaves were put into an ice cream cup (180 ml). Ten second-instar larvae of Spodoptera litura were set free therein, and the cup was left in a temperature-controlled breeding room (25° C.). On the fifth day after, the number of surviving Spodoptera litura was examined. The rate of dead pests was calculated by the following formula. rate of dead pests (%)=(number of dead pests/number of test pests)×100

| Structure (SMILES) | rate of dead pests (%) (Plutella xylostella [1]) | rate of dead pests (%) (Spodoptera litura [2]) | rate of dead pests (%) (Plutella xylostella [3]) | rate of dead pests (%) (Spodoptera litura [4]) | pest or weed control at 100 ppm (Plutella xylostella [1]) | pest or weed control at 100 ppm (Spodoptera litura [2]) | pest or weed control at 25 ppm (Plutella xylostella [3]) | pest or weed control at 25 ppm (Spodoptera litura [4]) |
| --- | --- | --- | --- | --- | --- | --- | --- | --- |
| O=C(c1c(F)cccc1F)N1COCN(c2ccc([S+]([O-])C(F)(F)C(F)Cl)cc2F)C1=O (stereo not drawn) [I-8] | 100% | 100% | 100% | 100% | – | – | – | – |
| O=C(c1c(F)cccc1F)N1COCN(c2ccc([S+]([O-])C(F)(F)C(F)Cl)cc2)C1=O (stereo not drawn) [I-11] | 100% | 100% | 100% | 100% | – | – | – | – |
| O=C(c1c(F)cccc1F)N1COCN(c2ccc([S+]([O-])C(F)(F)C(F)Cl)cc2Cl)C1=O (stereo not drawn) [I-14] | – | 100% | 100% | 100% | – | – | – | – |
| O=C(c1c(F)cccc1F)N1COCN(c2ccc([S+]([O-])C(F)(F)C(F)F)cc2)C1=O (stereo not drawn) [I-20] | 100% | 100% | 100% | 95% | – | – | – | – |
| O=C(c1c(F)cccc1F)N1COCN(c2ccc([S+]([O-])C(F)(F)C(F)F)cc2F)C1=O (stereo not drawn) [I-23] | – | 100% | 95% | 100% | – | – | – | – |
| CSc1ccc(N2COCN(C(=O)c3c(F)cccc3F)C2=O)c(F)c1 [I-28] | 100% | 100% | 100% | 100% | – | – | – | – |
| O=C(c1c(F)cccc1F)N1COCN(c2ccc(SCC(F)(F)F)cc2F)C1=O [I-34] | 100% | 100% | 100% | – | – | – | – | – |
| O=C(c1c(F)cccc1F)N1COCN(c2ccc(SC(F)F)cc2F)C1=O [I-41, 3-(2,6-difluorobenzoyl)-5-[4-(difluoromethylthio)-2-fluorophenyl]tetrahydro-4H-1,3,5-oxadiazin-4-one] | – | – | – | – | 100% | 100% | 100% | 100% |
| Cc1cc([S+]([O-])C(F)(F)F)ccc1N1COCN(C(=O)c2c(F)cccc2F)C1=O (stereo not drawn) [I-69] | – | 100% | 100% | – | – | – | – | – |
| Cc1cc(N2COCN(C(=O)c3c(F)cccc3F)C2=O)ccc1SC(F)(F)F [I-71] | – | 100% | 95% | 90% | – | – | – | – |
| Cc1cc(N2COCN(C(=O)c3c(F)cccc3F)C2=O)ccc1[S+]([O-])C(F)(F)F (stereo not drawn) [I-72] | – | 100% | 100% | – | – | – | – | – |
| O=C(c1c(F)cccc1F)N1COCN(c2ccc([S+]([O-])C(F)(F)F)cc2Cl)C1=O (stereo not drawn) [I-75] | – | 100% | 95% | 100% | – | – | – | – |
| O=C(c1c(F)cccc1F)N1COCN(c2ccc([S+]([O-])C(F)(F)F)c(Cl)c2)C1=O (stereo not drawn) [I-78] | – | 100% | 90% | 100% | – | – | – | – |
| O=C(c1c(F)cccc1F)N1COCN(c2ccc([S+]([O-])C(F)(F)F)c(F)c2)C1=O (stereo not drawn) [I-81] | 100% | 100% | 100% | – | – | – | – | – |
| Cc1c(N2COCN(C(=O)c3c(F)cccc3F)C2=O)ccc([S+]([O-])C(F)(F)F)c1C (stereo not drawn) [I-84] | – | 100% | 100% | – | – | – | – | – |
| O=C(c1c(F)cccc1F)N1COCN(c2c(F)cc([S+]([O-])C(F)(F)F)cc2Cl)C1=O (stereo not drawn) [I-102] | – | 100% | 100% | – | – | – | – | – |

| Structure (SMILES) | rate of dead pests (%) (Plutella xylostella [1]) | rate of dead pests (%) (Spodoptera litura [2]) | rate of dead pests (%) (Plutella xylostella [3]) | rate of dead pests (%) (Spodoptera litura [4]) | pest or weed control at 100 ppm (Plutella xylostella [1]) | pest or weed control at 100 ppm (Spodoptera litura [2]) | pest or weed control at 25 ppm (Plutella xylostella [3]) | pest or weed control at 25 ppm (Spodoptera litura [4]) |
| --- | --- | --- | --- | --- | --- | --- | --- | --- |
| O=C(c1c(F)cccc1F)N1COCN(c2c(F)cc([S+]([O-])C(F)(F)F)cc2F)C1=O (stereo not drawn) [I-105] | – | 100% | 100% | 100% | – | – | – | – |
| O=C(c1c(F)cccc1F)N1COCN(c2cc(F)c([S+]([O-])C(F)(F)F)cc2F)C1=O (stereo not drawn) [I-111] | – | 100% | 100% | – | – | – | – | – |
| Cc1c(N2COCN(C(=O)c3c(F)cccc3F)C2=O)ccc([S+]([O-])C(F)(F)F)c1Cl (stereo not drawn) [I-123] | – | 100% | 100% | – | – | – | – | – |
| Cc1cc([S+]([O-])C(F)(F)F)c(F)cc1N1COCN(C(=O)c2c(F)cccc2F)C1=O (stereo not drawn) [I-126] | – | 100% | 100% | – | – | – | – | – |
| O=C(c1c(F)cccc1F)N1COCN(c2ccc([S+]([O-])C(F)(F)C(F)(F)F)cc2F)C1=O (stereo not drawn) [I-129, 3-(2,6-difluorobenzoyl)-5-[2-fluoro-4-(1,1,2,2,2-pentafluoroethylsulfinyl)phenyl]tetrahydro-4H-1,3,5-oxadiazin-4-one] | – | – | – | – | – | 100% | 100% | 100% |
| CSc1ccc(N2COCN(C(=O)c3c(F)cccc3Cl)C2=O)c(F)c1 [I-205] | 100% | 100% | 90% | 100% | – | – | – | – |
| O=C(c1c(F)cccc1Cl)N1COCN(c2ccc([S+]([O-])C(F)(F)F)cc2F)C1=O (stereo not drawn) [I-222] | 100% | 100% | 100% | 100% | – | – | – | – |
| Cc1cc(N2COCN(C(=O)c3c(F)cccc3Cl)C2=O)ccc1[S+]([O-])C(F)(F)F (stereo not drawn) [I-249] | – | 100% | 95% | – | – | – | – | – |
| O=C(c1c(F)cccc1Cl)N1COCN(c2ccc([S+]([O-])C(F)(F)C(F)(F)C(F)(F)F)cc2F)C1=O (stereo not drawn) [I-321] | – | 100% | 95% | 100% | – | – | – | – |
| CS(=O)(=O)N1CN(C(=O)c2c(F)cccc2F)C(=O)N(c2cc(Cl)c(F)c(Cl)c2F)C1 [III-58] | 100% | 100% | 90% | 100% | – | – | – | – |
| COC(=O)C(=O)N1CN(C(=O)c2c(F)cccc2F)C(=O)N(c2cc(Cl)c(F)c(Cl)c2F)C1 [III-64] | 100% | 100% | 90% | 90% | – | – | – | – |
| O=C(c1c(F)cccc1F)N1CNCN(c2ccc([S+]([O-])C(F)(F)C(F)Cl)cc2F)C1=O (stereo not drawn) [III-91] | – | 100% | 100% | 95% | – | – | – | – |
| CN1CN(C(=O)c2c(F)cccc2F)C(=O)N(c2ccc(SC(F)F)cc2F)C1 [III-148, 1-(2,6-difluorobenzoyl)-3-[4-(difluoromethylthio)-2-fluorophenyl]-5-methyltetrahydro-1,3,5-triazin-2(1H)-one] | – | – | – | – | 100% | 100% | 100% | 100% |
| CC(=O)N1CN(C(=O)c2c(F)cccc2F)C(=O)N(c2ccc(SC(F)F)cc2F)C1 [III-149] | 100% | 100% | 95% | 100% | – | – | – | – |
| CS(=O)(=O)N1CN(C(=O)c2c(F)cccc2F)C(=O)N(c2ccc([S+]([O-])C(F)F)cc2F)C1 (stereo not drawn) [III-154] | – | 100% | 100% | 100% | – | – | – | – |
| O=C(c1c(F)cccc1F)N1CN=CN(c2cc(Cl)c(F)c(Cl)c2F)C1=O [V-4, 1-(3,5-dichloro-2,4-difluorophenyl)-3-(2,6-difluorobenzoyl)-3,4-dihydro-1,3,5-triazin-2(1H)-one] | – | – | – | – | 100% | 100% | 95% | – |
